The NIST ThermoML archive (doi:10.1016/j.jct.2018.03.007)

Test: xn = mol fraction of the nth substance listed
Conditions: 100 kPa, Liquid; for speed of sound: Linear variable-path acoustic interferometer; for mass density: Vibrating tube method

CCn1cc[n+](C)c1.O=S(=O)([O-])O [1-ethyl-3-methylimidazolium hydrogen sulfate] + CCCO
speed of sound [m/s], Frequency=2 MHz
Conditions | x1 = 0.0519 | x1 = 0.1097 | x1 = 0.2473 | x1 = 0.3301 | x1 = 0.425 | x1 = 0.5348 | x1 = 0.6634 | x1 = 0.816 | x1 = 0.9035 | x1 = 1
298.15 K | 1272.3 | 1342.3 | 1486.2 | 1561.1 | 1640.8 | 1724.4 | 1808.4 | 1892 | 1937.7 | 1982.8
303.15 K | 1254.7 | 1324 | 1467.1 | 1542 | 1621.3 | 1704.9 | 1788.3 | 1871.6 | 1917.9 | 1962.9
308.15 K | 1237.1 | 1305.9 | 1448.3 | 1522.1 | 1601.4 | 1684.2 | 1767.3 | 1850.6 | 1898.1 | 1943.1
313.15 K | 1219.7 | 1288.1 | 1429.1 | 1502.6 | 1581.7 | 1664.9 | 1747.8 | 1830.1 | 1878.1 | 1923.2

mass density [kg/m3]
Conditions | x1 = 0.0519 | x1 = 0.1097 | x1 = 0.2473 | x1 = 0.3301 | x1 = 0.425 | x1 = 0.5348 | x1 = 0.6634 | x1 = 0.816 | x1 = 0.9035 | x1 = 1
298.15 K | 859.54 | 918.5 | 1034.63 | 1091.59 | 1147.59 | 1202.62 | 1256.73 | 1310.71 | 1338.05 | 1365.75
303.15 K | 855.59 | 914.64 | 1030.95 | 1088.01 | 1144.15 | 1199.35 | 1253.6 | 1307.54 | 1334.87 | 1362.62
308.15 K | 851.62 | 910.8 | 1027.23 | 1084.39 | 1140.69 | 1196.07 | 1250.5 | 1304.42 | 1331.73 | 1359.53
313.15 K | 847.65 | 906.93 | 1023.51 | 1080.78 | 1137.24 | 1192.77 | 1247.33 | 1301.31 | 1328.62 | 1356.41

CCn1cc[n+](C)c1.O=S(=O)([O-])O [1-ethyl-3-methylimidazolium hydrogen sulfate] + CCO
speed of sound [m/s], Frequency=3 MHz
Conditions | x1 = 0.0281 | x1 = 0.0878 | x1 = 0.1779 | x1 = 0.3378 | x1 = 0.4731 | x1 = 0.577 | x1 = 0.6689 | x1 = 0.7759 | x1 = 0.8797 | x1 = 1
298.15 K | 1190.1 | 1289.8 | 1416.2 | 1577.8 | 1698.6 | 1780.2 | 1836.4 | 1893.6 | 1943.4 | 1982.8
303.15 K | 1170.6 | 1267.3 | 1393.3 | 1558.4 | 1675.8 | 1755.7 | 1816.2 | 1871.9 | 1922.1 | 1962.9
308.15 K | 1152.1 | 1245.3 | 1370.9 | 1538.6 | 1653 | 1731.4 | 1796 | 1850.2 | 1900.8 | 1943.1
313.15 K | 1132.9 | 1222.8 | 1348 | 1516.6 | 1630.3 | 1707.9 | 1773.8 | 1828.5 | 1879.5 | 1923.2

mass density [kg/m3]
Conditions | x1 = 0.0281 | x1 = 0.0878 | x1 = 0.1779 | x1 = 0.3378 | x1 = 0.4731 | x1 = 0.577 | x1 = 0.6689 | x1 = 0.7759 | x1 = 0.8797 | x1 = 1
298.15 K | 829.67 | 910.66 | 1007.45 | 1129.95 | 1203.92 | 1248.74 | 1281.87 | 1314.38 | 1340.71 | 1365.75
303.15 K | 825.5 | 906.7 | 1003.74 | 1126.52 | 1200.65 | 1245.56 | 1278.69 | 1311.18 | 1337.51 | 1362.62
308.15 K | 821.28 | 902.7 | 999.98 | 1123.06 | 1197.38 | 1242.38 | 1275.52 | 1308 | 1334.34 | 1359.53
313.15 K | 817 | 898.63 | 996.14 | 1119.54 | 1194.05 | 1239.13 | 1272.31 | 1304.78 | 1331.14 | 1356.41

CCn1cc[n+](C)c1.O=S(=O)([O-])O [1-ethyl-3-methylimidazolium hydrogen sulfate] + C[S+](C)[O-]
speed of sound [m/s], Frequency=2 MHz
Conditions | x1 = 0.0494 | x1 = 0.1349 | x1 = 0.2377 | x1 = 0.3638 | x1 = 0.5219 | x1 = 0.6517 | x1 = 0.7261 | x1 = 0.8081 | x1 = 0.9182 | x1 = 1
298.15 K | 1530.5 | 1600.5 | 1672.7 | 1746.9 | 1823.3 | 1875.5 | 1902 | 1928.7 | 1961 | 1982.8
303.15 K | 1513.4 | 1582.9 | 1654.4 | 1728.2 | 1804.2 | 1856.1 | 1882.4 | 1909 | 1941.2 | 1962.9
308.15 K | 1495.9 | 1564.8 | 1635.9 | 1709.3 | 1784.9 | 1836.6 | 1862.8 | 1889.3 | 1921.5 | 1943.1
313.15 K | 1478.6 | 1547 | 1617.6 | 1690.5 | 1765.7 | 1817.1 | 1843.2 | 1869.6 | 1901.6 | 1923.2

mass density [kg/m3]
Conditions | x1 = 0.0494 | x1 = 0.1349 | x1 = 0.2377 | x1 = 0.3638 | x1 = 0.5219 | x1 = 0.6517 | x1 = 0.7261 | x1 = 0.8081 | x1 = 0.9182 | x1 = 1
298.15 K | 1128.82 | 1175.73 | 1219.12 | 1259.43 | 1297.19 | 1320.97 | 1332.42 | 1343.71 | 1357.03 | 1365.75
303.15 K | 1124.11 | 1171.37 | 1214.91 | 1255.51 | 1293.61 | 1317.58 | 1329.14 | 1340.51 | 1353.89 | 1362.62
308.15 K | 1119.4 | 1166.99 | 1210.85 | 1251.66 | 1290.03 | 1314.21 | 1325.9 | 1337.32 | 1350.73 | 1359.53
313.15 K | 1114.68 | 1162.54 | 1206.72 | 1247.85 | 1286.51 | 1310.9 | 1322.64 | 1334.1 | 1347.61 | 1356.41
